The values below come from BindingDB's records for doi:10.7270/Q2BR8QM3 (Nmmlsc, 2008).

Structures are written as SMILES. pEC50: −log10 of the molar value.

The experiment deals with T1, Bcl-2-like protein 2 (Homo sapiens, UniProt Q92843).
T1 sequence (Q92843 whole entry): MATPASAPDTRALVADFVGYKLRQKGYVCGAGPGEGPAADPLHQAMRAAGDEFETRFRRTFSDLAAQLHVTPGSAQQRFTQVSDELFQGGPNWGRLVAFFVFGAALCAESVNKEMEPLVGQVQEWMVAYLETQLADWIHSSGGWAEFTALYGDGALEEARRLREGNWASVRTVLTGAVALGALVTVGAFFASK
The experiment in a line: modulators of Bim-Bcl-W protein interaction, dose response, biochemical, multiplexed, bead-based flow cytometry, fluorescence (AID 1330). As to conditions: inactive by the depositor's call. Background: Flow cytometry measures light scatter and fluorescence of single cells or particles in a stream.
By pEC50 is commonly meant the negative decadic logarithm of the EC50, by convention in mol/L. Read a low pEC50 as a high EC50. Regarding `CCN1C(=O)/C(=C/C=C2\C=CN(CC)c3ccccc32)SC1=S`, the pEC50 is 4.80.

Take `Nc1c(C(=O)NCc2ccco2)sc2nc3c(cc12)C(=O)CCC3` [SMR000072940]: the pEC50 is 4.50.

Take `Cc1ccc(CNc2ccc3c(c2)OCO3)c(C)c1` [1,3-benzodioxol-5-yl(2,4-dimethylbenzyl)amine]: the negative-log EC50 (pEC50) was 4.35.

`COc1cc(CNc2ccc(N3CCCC3)cc2)cc(Cl)c1OC` [N-[(3-chloranyl-4,5-dimethoxy-phenyl)methyl]-4-pyrrolidin-1-yl-aniline] showed a negative logarithm of the EC50 (pEC50) of 5.43.

As to `Cc1nc2ncccn2c1-c1csc(Nc2ccccc2)n1` [4-(2-methyl-3-imidazo[1,2-a]pyrimidinyl)-N-phenyl-2-thiazolamine], the pEC50 is 5.06.

In turn, `CCOc1cccc(CNc2ccc(O)cc2)c1OCc1ccccc1Cl` [MLS000580486] gave a pEC50 of 5.21.

On to `COCCCNc1nc(S)nc2cc(OC)c(OC)cc12` [SMR000026607], for which the negative-log EC50 (pEC50) is 5.43.

The compound `Cc1cc(C)nc(SCc2cc(=O)c(OC(=O)c3ccc(Cl)c([N+](=O)[O-])c3)co2)n1` [4-chloro-3-nitrobenzoic acid [6-[[(4,6-dimethyl-2-pyrimidinyl)thio]methyl]-4-oxo-3-pyranyl] ester] had a negative-log EC50 (pEC50) of 5.21. Compared with the last compound, the pEC50 is 0.22 log units lower.
